Assay [1] has as its system FLS2 (FLS2-ECD). As to the kind of experiment: Yeast two-hybrid with FLS2-ECD. The assay is classed as binding, Arabidopsis thaliana. To be noted: yeast AH109, medium lacking Leu, Trp, His. The text has this: Fig 6 AtRALF1 interacts physically with BAK1 protein. (A) The active AtRALF1 peptide interacts with the extracellular domain (ECD) of BAK1 (BAK1-ECD) in yeast. The AtRALF1 protein fused to the GAL4 DNA-binding domain (AtRALF1-pGBKT7) was used as bait to test its interaction with the extracellular domain of the proteins fused to the GAL4 activation domain (pGADT7): BAK1 (BAK1-ECD), BAK7 (BAK7-ECD), BRI1 (BRI1-ECD) and FLS2 (FLS2-ECD). (B) Blueprint showing the truncated proteins from the extracellular domain of BAK1 tested in the two-hybrid assay. The extracellular domain of BAK1 comprises leucine zippers (LZ), 5 leucine rich-regions (LRRs) and a proline-rich region (pro-rich). (C) AtRALF1-pGBKT7 was used as bait to test its interaction with truncated proteins fused to the GAL4 activation domain (pGADT7). […] HA-BAK1-ECD was detected with an anti-HA antibody. AtRALF1 was detected with an anti-RALF antibody. […] BAK1-GFP was detected with an anti-GFP antibody. […]
The coding regions of the mature peptides AtRALF1 and AtRALF34 were amplified from Arabidopsis genomic DNA and fused to the GAL4 DNA-binding domain and the MYC epitope tag using the NdeI/BamHI sites in the pGBKT7 (Clontech) vector. […] The proteins fused to the HA and MYC epitope tags were detected by protein blotting. […]

In assay [2] the test system is Arabidopsis seedlings, primary root. To be noted: ref [10], cited from earlier work. The text has this: FERONIA (FER), a receptor-like kinase with an extracellular malectin-like domain, has been identified as the receptor of the root-specific isoform AtRALF1 [10]. LORELEI (LRE) and LRE-like GPI-AP1 (LLG1) are two glycosylphosphatidylinositol-anchored proteins found in ovules and vegetative tissues, respectively, that physically interact with FER and are required for FER delivery to the cell membrane and FER signaling. […] In a search for putative genetic components that might be shared by both the AtRALF1 and BR signaling pathways, we tested mutants lacking different components of the BR signaling pathway in root growth assays with inhibitory concentrations of the AtRALF1 peptide. […] A previous study in which 18 receptor-like proteins were tested in root g ...

For assay [3], the system named is microsomal fractions from the roots of Arabidopsis. As to the kind of experiment: Binding assay with acridinium-labeled AtRALF1, microsomal fractions. Further details: species or system Arabidopsis thaliana. How it is done: (A) Whole seedlings (5 days old) were treated for 15 min with acriAtRALF1 (acriR1), acriR1 and an excess of unlabeled AtRALF34 (R34), RALF1(9–49) [(R-9-49)], or AtRALF1 (R1), as indicated. The values are the mean ± SD of two measurements (5 seedlings each). (B) Microsomal fractions from wild-type and bak1 mutants were incubated for 15 min with acriAtRALF1 (acriR1), with acriR1 and an excess of unlabeled RALF1(9–49) [(R-9-49)], or with AtRALF1 (R1), as indicated. The values are the mean ± SD of two measurements. The proportions of labeled: unlabeled proteins are shown in parentheses. Single and triple asterisks indicate P < 0.1 and P < 0.01 (Student’s t test).
Arabidopsis seedlings were grown for 5 days on vertical plates. Roots were homogenized in extraction buffer [300 mM sucrose, 100 mM Tris-HCl pH 7.5, 25 mM EDTA, 25 mM NaF, 1 mM Na2MoO4, 1 mM PMSF and protease inhibitor cocktail (Roche), adjusted to pH 6.2], and the homogenate was spun at 2,000 x g for 10 min at 4 °C. The supernatant was recovered and centrifuged at 100,000 x g for 50 min at 4 °C to precipitate the microsomal pellet. The pellet was resuspended in the extraction buffer plus 0.5% Triton-X. Seedlings or microsomal fractions were placed in 200 μl of medium and incubated with 7 nM acridinium-labeled peptide (acriAtRALF1 or acriAtRALF34) and different concentrations of AtRALF1, AtRALF34 or RALF1(9–49) for 15–20 min at 4 °C on a shaker. After incubation, the seedlings or microsomal fractions were washed three times with the same medium. Unless indicated otherwise, five entire seedlings and approximately 10 ng of microsomal fractions were used per treatment. The resulting luminescence emissions from the acridinium were measured using a microplate reader (Biotec ELx 800) at 2 s after injecting 50 μl of a solution containing 20 mM H2O2 in 0.1 M NaOH. These experiments were repeated at least three times using independent biological replicates. Duplicates were used for each concentration or treatment. The data shown are from one representative experiment.

Assay [4] deals with cell suspensions. The conditions noted are these: cited from earlier work.

Where no end group is shown, it is not given here.

With “AtRALF1: root-specific RALF isoform in Arabidopsis; recombinant peptide hormone produced in E. coli (ATTKYISYQSLKRNSVPCSRRGASYYNCQNGAQANPYSRGCSKIARCRS; ends and bridges not checked; cysteine pairing not given here)”, in assay [1], the “interaction with FLS2-ECD (Y2H complementation)” value is on record as “able to complement only the BAK1-ECD construct”. In assay [2] (FERONIA mutant fer4, low concentrations), the “root growth inhibition, sensitivity of fer4” value is on record as “insensitive to low concentrations of the AtRALF1 peptide”. The root growth inhibition result in assay [2] (bak1-4 mutant, 1 μM) is recorded as “the roots of the bak1-4 mutant were inhibited by the peptide”. The “share of AtRALF1 binding due to BAK1” value in assay [3] (microsomal fractions from roots) is recorded as “approximately 15%”. Further, the “acriAtRALF1 binding reduced to, of the total” value in assay [3] (microsomal fractions of wild-type and bak1, 10-fold excess of AtRALF1) is “approximately 30%”. For the same substance, the “acriAtRALF1 binding reduced to, of the total binding” value in assay [3] (microsomal fractions of wild-type and bak1, 100- or 500-fold excess of AtRALF1) is “approximately 60%”. For the same substance, the “alkalinization of the extracellular media” value in assay [4] (ref [1],[11]) was “induces a rapid alkalinization of the extracellular media of cell suspensions”. Besides, in assay [4] (ref [5]), the “alkalinization of the extracellular medium” value is recorded as “alkalinizes the extracellular medium of cell suspensions”.

The values above are taken from publication PMC5656322, “BAK1 is involved in AtRALF1-induced inhibition of root cell expansion” (PLoS Genetics, 2017).
